According to paper PMC6384991, “5-Arylideneimidazolones with Amine at Position 3 as Potential Antibiotic Adjuvants against Multidrug Resistant Bacteria” (Molecules, 2019):
Where two headings read alike, the source gives them in different places. Residues, ends and D or L forms follow the SMILES beside them. *: point of attachment. βNA = c1ccc2cc(N*)ccc2c1

Legend:
[1] = test system: AcrAB-TolC efflux pump in E. aerogenes Ea-289; test: Real-time efflux (RTE) assay with 1,2'-dNA; conditions: compound 100 µM; Ea-289 strain
[2] = test system: E. aerogenes Ea-294, Ea-298; test: MIC (microdilution) against E. aerogenes strains devoid of AcrAB / TolC; conditions: Klebsiella aerogenes
MRSA HEMSA 5 [3] = test: Intrinsic antibacterial activity (MIC, microdilution) against MRSA HEMSA 5; type: cell-based, S. aureus; conditions: for MIC: Staphylococcus aureus
Method: (§1) Initially, 12 arylideneimidazolone derivatives were evaluated in vitro for their intrinsic antibacterial effect against two strains of S. aureus: the reference strain S. aureus ATCC 25923 and extremely-drug resistant (XDR) MRSA HEMSA 5 clinical isolate. This step of the study was necessary for: (i) elucidation whether molecules tested are devoid of antistaphylococcal activity and thus cannot become antimicrobial agents by themselves; and (ii) determination of the concentrations of compounds suitable for the further assay on their antibiotic adjuvant potency. In addition, the antistaphylococcal efficacy of oxacillin, which was paired with compounds tested, in the following assays was also assessed (Table 3).

E. aerogenes Ea-289 = test: MIC (microdilution) against E. aerogenes Ea-289 overexpressing AcrAB-TolC, porin-deficient; conditions: for MIC: Klebsiella aerogenes; for increase of MIC for Ea-289 and CM-64 in comparison to Ea-298 and Ea-294: efflux overexpressing vs deficient strains
S. aureus ATCC 25923 = test: Intrinsic antibacterial activity (MIC, microdilution) against reference S. aureus strain; type: cell-based; conditions: Staphylococcus aureus
Method: as §1

E. aerogenes CM-64 = test: MIC (microdilution) against E. aerogenes CM-64 overexpressing AcrAB-TolC; conditions: Klebsiella aerogenes
MRSA HEMSA 5 [4] = test: MIC reduction assay: influence on oxacillin susceptibility in MRSA; type: cell-based, S. aureus; conditions: MRSA HEMSA 5
Method: The lack of a direct antibacterial activity of arylideneimidazolone derivatives tested allowed analyzing their anti-resistance potency in combination with the β-lactam antibiotic, oxacillin. […] The potential of compounds to become antibiotic adjuvants was evaluated by comparing the drug effectiveness in the presence and absence of compounds tested, thereby, by determining activity gain parameter A (Table 5). […] Slightly lower adjuvant-like activity was determined for the imidazolone derivatives 7 and 10 (A = 8–16). The efficacy of the remaining compounds was slightly less marked, however, also significant. Although compounds tested improved noticeably the antibacterial activity of oxacillin against MRSA clinical isolate, none of them restored the activity of the antibiotic (MIC < 2 µg/mL) against this highly resistant strain.

[5] = MRSA HEMSA 5, compound alone, MH II broth, read-out: MIC Value
[6] = ATCC25923, S. aureus ATCC 25923, compound alone, MH II broth, read-out: MIC Value
[7] = EA289, read-out: MIC (in brackets)
[8] = CM64, read-out: MIC (in brackets)

Cl.NC1=N/C(=C\c2c3ccccc3cc3ccccc23)C(=O)N1CCCN1CCOCC1 [Compound 16, (Z)-2-Amino-5-(anthracen-10-ylmethylene)-3-(3-morpholinopropyl)-3H-imidazol-4(5H)-one hydrochloride]
Inhibitory efficiency (IE) of 1,2'-dNA efflux [1]: 44%
MIC [2]: 2000 µM
melting point: 244 to 246 °C
MIC (MRSA HEMSA 5 [3]; [5]): > 125 µM
MIC (E. aerogenes Ea-289; EA289): > 2000 µM
MIC (S. aureus ATCC 25923; [6]): > 125 µM
MIC (E. aerogenes CM-64; CM64): > 2000 µM

CN1CCN(CCCN2C(=O)/C(=C/c3ccc(Cl)cc3)N=C2N)CC1.Cl [Compound 7, (Z)-5-(4-chlorobenzylidene)-2-amino-3-(3-(4-methylpiperazin-1-yl)propyl)-3H-imidazol-4(5H)-one hydrochloride]
MIC (MRSA HEMSA 5 [3]; [5]): 1000 µM
MIC (S. aureus ATCC 25923; [6]): 500 to 1000 µM
reduction of MIC of oxacillin (MRSA HEMSA 5 [4]): 16 fold

O=C(N[C@H](CO)[C@H](O)c1ccc([N+](=O)[O-])cc1)C(Cl)Cl [Chloramphenicol]
MIC [2]: 200 µM
MIC ([2]; read-out: MIC (in brackets)): 64 µg/mL
MIC (E. aerogenes Ea-289; EA289): 3200 µM
MIC (E. aerogenes Ea-289; [7]): 1020 µg/mL
MIC (E. aerogenes CM-64; CM64): 1600 µM
MIC (E. aerogenes CM-64; [8]): 512 µg/mL

CN1CCN(CCCN2C(=O)/C(=C/c3c4ccccc4cc4ccccc34)N=C2N)CC1.Cl [Compound 11, (Z)-2-Amino-5-(anthracen-10-ylmethylene)-3-(3-(4-methylpiperazin-1-yl)propyl)-3H-imidazol-4(5H)-one hydrochloride]
Inhibitory efficiency (IE) of 1,2'-dNA efflux [1]: 37%
MIC [2]: 500 µM
melting point: 246 to 248 °C
MIC (MRSA HEMSA 5 [3]; [5]): 500 µM
MIC (E. aerogenes Ea-289; EA289): > 2000 µM
increase of MIC for Ea-289 and CM-64 in comparison to Ea-298 and Ea-294 (E. aerogenes Ea-289): ≥ 4 fold
MIC (S. aureus ATCC 25923; [6]): 500 µM
MIC (E. aerogenes CM-64; CM64): > 2000 µM

C[C@H]1c2cccc(O)c2C(=O)C2=C(O)[C@]3(O)C(=O)C(C(N)=O)=C(O)[C@@H](N(C)C)[C@@H]3[C@@H](O)[C@@H]21 [Doxycycline]
MIC [2]: 5 µM
MIC ([2]; read-out: MIC (in brackets)): 2 µg/mL
MIC (E. aerogenes Ea-289; EA289): 18 µM
MIC (E. aerogenes Ea-289; [7]): 8 µg/mL
MIC (E. aerogenes CM-64; CM64): 72 µM
MIC (E. aerogenes CM-64; [8]): 32 µg/mL

COc1ccc(/C=C2\N=C(N)N(CCCN3CCN(C)CC3)C2=O)cc1.Cl [Compound 8, (Z)-5-(4-Methoxybenzylidene)-2-amino-3-(3-(4-methylpiperazin-1-yl)propyl)-3H-imidazol-4(5H)-one hydrochloride]
MIC (MRSA HEMSA 5 [3]; [5]): > 2000 µM
MIC (S. aureus ATCC 25923; [6]): > 2000 µM
reduction of MIC of oxacillin (MRSA HEMSA 5 [4]): 8 fold

Cc1onc(-c2ccccc2)c1C(=O)N[C@@H]1C(=O)N2[C@@H]1SC(C)(C)[C@@H]2C(=O)O [Oxacillin, reference compound]
MIC (MRSA HEMSA 5 [3]; [5]): 1210 µM
MIC (MRSA HEMSA 5 [3]; MRSA HEMSA 5, read-out: MIC Value (in brackets)): 512 µg/mL
MIC (S. aureus ATCC 25923; [6]): 0.59 µM
MIC (S. aureus ATCC 25923; ATCC25923, S. aureus ATCC 25923, read-out: MIC Value (in brackets)): 0.25 µg/mL

CC[C@H]1OC(=O)[C@H](C)[C@@H](O[C@H]2C[C@@](C)(OC)[C@@H](O)[C@H](C)O2)[C@H](C)[C@@H](O[C@@H]2O[C@H](C)C[C@H](N(C)C)[C@H]2O)[C@](C)(O)C[C@@H](C)C(=O)[C@H](C)[C@@H](O)[C@]1(C)O [Erythromycin]
MIC [2]: 5 µM
MIC ([2]; read-out: MIC (in brackets)): 4 µg/mL
MIC (E. aerogenes Ea-289; EA289): 350 µM
MIC (E. aerogenes Ea-289; [7]): 256 µg/mL
MIC (E. aerogenes CM-64; CM64): 700 µM
MIC (E. aerogenes CM-64; [8]): 512 µg/mL

(Z)-2-Amino-5-(biphen-4-ylmethylene)-3-(2-(4-methylpiperazin-1-yl)ethyl)-3H-imidazol-4(5H)-one hydrochloride [Compound 14]
MIC Value (MRSA HEMSA 5 [3]; MRSA HEMSA 5, compound alone, MH II broth): 250 µM
reduction of MIC of oxacillin (MRSA HEMSA 5 [4]): 8 fold

CCn1cc(C(=O)O)c(=O)c2cc(F)c(N3CCNCC3)cc21 [Norfloxacin, norfloxacin]
MIC [2]: 50 µM
MIC ([2]; read-out: MIC (in brackets)): 16 µg/mL
MIC (E. aerogenes Ea-289; EA289): 200 µM
MIC (E. aerogenes Ea-289; [7]): 64 µg/mL
MIC (E. aerogenes CM-64; CM64): 6 µM
MIC (E. aerogenes CM-64; [8]): 2 µg/mL

CN1CCN(C2=N/C(=C\c3ccc(Cl)cc3)C(=O)N2)CC1 [Compound 6, (Z)-5-(4-chlorobenzylidene)-2-(4-methylpiperazin-1-yl)-3H-imidazol-4(5H)-one]
MIC (MRSA HEMSA 5 [3]; MRSA, read-out: MIC Value): 1000 µM
MIC (S. aureus ATCC 25923; ATCC25923, read-out: MIC Value): 2000 µM
reduction of MIC of oxacillin (MRSA HEMSA 5 [4]): 8 fold

Cl.NC1=N/C(=C\c2cccc(Oc3ccccc3)c2)C(=O)N1CCCN1CCOCC1 [Compound 17, (Z)-5-(3-phenoxybenzylidene)-2-amino-3-(3-morpholinopropyl)-3H-imidazol-4(5H)-one hydrochloride]
Inhibitory efficiency (IE) of 1,2'-dNA efflux [1]: 61%
MIC [2]: 500 µM
melting point: 227 to 230 °C
MIC (MRSA HEMSA 5 [3]; [5]): 250 µM
MIC (E. aerogenes Ea-289; EA289): > 2000 µM
increase of MIC for Ea-289 and CM-64 in comparison to Ea-298 and Ea-294 (E. aerogenes Ea-289): ≥ 4 fold
MIC (S. aureus ATCC 25923; [6]): 250 µM
reduction of MIC of oxacillin (MRSA HEMSA 5 [4]): 2 fold
MIC (E. aerogenes CM-64; CM64): > 2000 µM

COc1ccc(/C=C2\N=C(N)N(CCCN3CCN(C)CC3)C2=O)cc1.Cl (hydrate or solvate) [Compound 8, (Z)-5-(4-Methoxybenzylidene)-2-amino-3-(3-(4-methylpiperazin-1-yl)propyl)-3H-imidazol-4(5H)-one hydrochloride]
melting point: 262 °C

CN1CCN(CCCN2C(=O)/C(=C/c3ccc(Oc4ccccc4)cc3)N=C2N)CC1 [Compound 12, (Z)-5-(4-Phenoxybenzylidene)-2-amino-3-(3-(4-methylpiperazin-1-yl)propyl)-3H-imidazol-4(5H)-one]
Inhibitory efficiency (IE) of 1,2'-dNA efflux [1]: 64%
MIC [2]: 1000 µM
melting point: 220 to 230 °C
MIC (MRSA HEMSA 5 [3]; MRSA, read-out: MIC Value): 250 to 500 µM
MIC (E. aerogenes Ea-289; EA289): 2000 µM
MIC (S. aureus ATCC 25923; ATCC25923, read-out: MIC Value): 250 µM
reduction of MIC of oxacillin (MRSA HEMSA 5 [4]): 8 fold
MIC (E. aerogenes CM-64; CM64): 2000 µM

CN1CCN(CCCN2C(=O)/C(=C/c3ccc(Cl)cc3)N=C2N)CC1.Cl (hydrate or solvate) [Compound 7, (Z)-5-(4-chlorobenzylidene)-2-amino-3-(3-(4-methylpiperazin-1-yl)propyl)-3H-imidazol-4(5H)-one hydrochloride]
melting point: 294 °C

CN1CCN(CCCN2C(=O)/C(=C/c3cc4ccccc4c4ccccc34)N=C2N)CC1.Cl [Compound 10, (Z)-2-Amino-3-(3-(4-methylpiperazin-1-yl)propyl)-5-(phenanthren-9-ylmethylene)-3H-imidazol-4(5H)-one hydrochloride]
Inhibitory efficiency (IE) of 1,2'-dNA efflux [1]: 60%
MIC [2]: 500 µM
melting point: 266 to 268 °C
MIC (MRSA HEMSA 5 [3]; [5]): > 125 µM
MIC (E. aerogenes Ea-289; EA289): 1000 µM
MIC (S. aureus ATCC 25923; [6]): > 125 µM
MIC (E. aerogenes CM-64; CM64): 1000 µM

NC(N)=NCCC[C@H](NC(=O)[C@@H](N)Cc1ccccc1)C(=O)Nc1ccc2ccccc2c1 [PaβN] (H-Phe-Arg-βNA)
MIC [2]: 125 µM
MIC (E. aerogenes Ea-289; EA289): 500 µM
MIC (E. aerogenes CM-64; CM64): 500 µM

CN1CCN(CCCN2C(=O)/C(=C/c3cccc4ccccc34)N=C2N)CC1.Cl [Compound 15, (Z)-2-Amino-3-(3-(4-methylpiperazin-1-yl)propyl)-5-(naphthalen-1-ylmethylene)-3H-imidazol-4(5H)-one hydrochloride]
melting point: 187 to 191 °C
MIC (MRSA HEMSA 5 [3]; [5]): 1000 to 2000 µM
MIC (S. aureus ATCC 25923; [6]): 1000 µM
